The test system of series [1] is Influenza A virus. Put plainly: Antiviral activity against Influenza A virus A/WSN/33(H1N1) infected in MDCK cells assessed as inhibition of viral growth pre-infected for 1 hr followed by compound addition and measured 24 hrs post infection by plaque assay. It is filed as functional, organism-based.
The nature of series [2]: Cytotoxicity against MDCK cells assessed as reduction in cell viability incubated for 48 hrs by MTT assay. Particulars: dog. It is filed as toxicity, cell-based, Canis lupus familiaris.
For series [3], the system named is Influenza A virus. Put plainly: Antiviral activity against Influenza A virus A/WSN/33(H1N1) infected in MDCK cells assessed as inhibition of viral growth 12.5 uM pre-infected for 1 hr followed by compound addition and measured 24 hrs post infection by plaque assay relative to control. Particulars: for inhibition: time 23.0 hrs; for inhibition at 12.5 µM: time 23 hrs. Type of series: functional.

Series [4] concerns Influenza A virus. Nature of the series: Antiviral activity against Influenza A virus A/WSN/33(H1N1) infected in MDCK cells assessed as inhibition of viral growth at 100 uM pre-infected for 1 hr followed by compound addition and measured 24 hrs post infection by plaque assay relative to control. It is filed as functional. The conditions noted are these: time 23 hrs.
The subject of another series is MDCK. Nature of the series: Cytotoxicity against MDCK cells assessed as reduction in cell viability at 12.5 uM incubated for 48 hrs by MTT assay. It is filed as toxicity, cell-based, Canis lupus familiaris. Particulars: dog.
Series [5] deals with Influenza A virus. Put plainly: Antiviral activity against Influenza A virus A/WSN/33(H1N1) infected in MDCK cells assessed as inhibition of viral growth at 6.25 uM pre-infected for 1 hr followed by compound addition and measured 24 hrs post infection by plaque assay relative to control. It is filed as functional. Particulars: time 23 hrs.
Series [6] deals with Influenza A virus. Nature of the series: Antiviral activity against Influenza A virus A/WSN/33(H1N1) infected in MDCK cells assessed as inhibition of viral growth at 50 uM pre-infected for 1 hr followed by compound addition and measured 24 hrs post infection by plaque assay relative to control. Type of series: functional. The conditions noted are these: time 23 hrs.
Series [7] deals with Influenza A virus. Nature of the series: Antiviral activity against Influenza A virus A/WSN/33(H1N1) infected in MDCK cells assessed as reduction in virus-induced cytopathic effect at 100 uM pre-infected with cells for 1 hrs followed by compound addition and measured after 2 days by MTT assay. Type of series: functional, organism-based. The conditions noted are these: time 2.0 day.

pIC50: −log10 of the molar value. Calls of active or inactive are those of the source. The calls are words filed in the database; no cut-off is given here.

These results are taken from ChEMBL document CHEMBL5625251, “Anti-influenza virus activities and mechanism of antrafenine analogs” (Eur J Med Chem, 2023).

`CCC(CC)O[C@@H]1C=C(C(=O)O)C[C@H](N)[C@H]1NC(C)=O` [OSELTAMIVIR CARBOXYLATE]: in the series with Influenza A virus [1], the pIC50 is 11.05. On to `CN(C)CCNC(=O)c1ccccc1Nc1ccnc2cc(C(F)(F)F)ccc12`, for which the CC50 at 48 h in series [2] is 17.4 µM. Further, in the series on Influenza A virus [3], the inhibition result was “inactive”. For the compound `Cc1ccc(N2CCN(CCNC(=O)c3ccccc3Nc3ccnc4cc(C(F)(F)F)ccc34)CC2)c(C)c1`, in series [2], the CC50 at 48 h is > 100 µM. Consider `O=C(NCCCN1CCOCC1)c1ccccc1Nc1ccnc2cc(C(F)(F)F)ccc12`, for which the CC50 at 48 h in series [2] is > 100 µM. Also, the inhibition at 100 µM with Influenza A virus [4] came to 99.9%. Turning to `Cc1ccccc1N1CCN(CCNC(=O)c2ccccc2Nc2ccnc3ccc(Cl)cc23)CC1`, the Activity entry in the series on MDCK is “Toxic”. With `O=C(NC12CC3CC(CC(C3)C1)C2)c1ccccc1Nc1ccnc2ccc(Cl)cc12`, the Activity entry in the series with MDCK is recorded as “Toxic”. Consider `CCN(CC)CCCNC(=O)c1ccccc1Nc1ccnc2ccc(Cl)cc12`, for which the CC50 at 48 h in series [2] turned out to be 38 µM. Besides, the inhibition at 6.25 µM in the series with Influenza A virus [5] was 15.3%. Take `O=C(CNC(=O)c1ccccc1Nc1ccnc2cc(C(F)(F)F)ccc12)NC1CCCCC1`: the inhibition at 50 µM with Influenza A virus [6] is 69.3%. Besides, in series [2], the CC50 at 48 h was > 100 µM. Regarding `CNC(=O)c1ccccc1Nc1ccnc2cc(C(F)(F)F)ccc12`, in series [2], the CC50 at 48 h is > 100 µM. Also, the inhibition at 100 µM in the series on Influenza A virus [4] was 20%. As for `O=C(NCCN1CCN(c2ccccc2OC(F)(F)F)CC1)c1ccccc1Nc1ccnc2cc(C(F)(F)F)ccc12`, the CC50 at 48 h in series [2] is > 100 µM.

For the compound `O=C(NCc1ccccc1)c1ccccc1Nc1ccnc2ccc(Cl)cc12`, the CC50 at 48 h in series [2] was determined as 45.3 µM.

Consider `O=C(NCC(=O)N1CCOCC1)c1ccccc1Nc1ccnc2cc(C(F)(F)F)ccc12`, for which the CC50 at 48 h in series [2] is > 100 µM. Moreover, the inhibition at 100 µM in the series on Influenza A virus [4] worked out at 60.6%.

In the case of `O=C(Nc1cccc([N+](=O)[O-])c1)c1ccccc1Nc1ccnc2ccc(Cl)cc12`, the Activity result in the series with MDCK was “Toxic”. In addition, the inhibition at 6.25 µM in the series with Influenza A virus [5] was found to be 21.4%. For the compound `O=C(O)c1ccccc1Nc1ccnc2ccc(Cl)cc12`, the inhibition at 50 µM in the series with Influenza A virus [6] turned out to be 3.5%. Also, in series [2], the CC50 at 48 h was > 100 µM. Take `O=C(NC1CCCCC1)c1ccccc1Nc1ccnc2cc(C(F)(F)F)ccc12`: in series [2], the CC50 at 48 h was > 50 µM. The inhibition at 12.5 µM in the series on Influenza A virus [3] was 41.3%.

`Cc1ccccc1N1CCN(C(=O)CNC(=O)c2ccccc2Nc2ccnc3ccc(Cl)cc23)CC1`: in series [2], the CC50 at 48 h is > 100 µM. In the series on Influenza A virus [3], the inhibition at 12.5 µM amounted to 55.8%. With `NC(=O)c1ccccc1Nc1ccnc2cc(C(F)(F)F)ccc12`, in series [2], the CC50 at 48 h was > 100 µM. The same measure, in the same setting: the figure for `O=C(OCCN1CCN(c2cccc(C(F)(F)F)c2)CC1)c1ccccc1Nc1ccnc2cc(C(F)(F)F)ccc12` [ANTRAFENINE] is > 100 µM. For the compound `COC(=O)c1ccccc1Nc1ccnc2cc(C(F)(F)F)ccc12`, the CC50 at 48 h in series [2] was > 100 µM. Besides, in the series on Influenza A virus [4], the inhibition at 100 µM turned out to be 17.9%.

As for `O=C(NC12CC3CC(CC(C3)C1)C2)c1ccccc1Nc1ccnc2cc(C(F)(F)F)ccc12`, in the series with MDCK, the Activity result is on record as “Toxic”. As for `O=C(NCCCO)c1ccccc1Nc1ccnc2cc(C(F)(F)F)ccc12`, the CC50 at 48 h in series [2] is > 100 µM. Further, the inhibition at 100 µM in the series with Influenza A virus [4] was 62.6%. As to `O=C(CNC(=O)c1ccccc1Nc1ccnc2cc(C(F)(F)F)ccc12)NCCCN1CCOCC1`, the inhibition at 50 µM in the series on Influenza A virus [6] was determined as 94.9%. In series [2], the CC50 at 48 h is > 50 µM. `O=C(Nc1ccc(Br)cc1)c1ccccc1Nc1ccnc2cc(C(F)(F)F)ccc12`: in the series with MDCK, the Activity result is reported as “Toxic”. For the same compound, the inhibition at 6.25 µM in the series on Influenza A virus [5] was 74.5%. `NC(=O)c1ccccc1Nc1ccnc2ccc(Cl)cc12`: the half-maximal cytotoxic concentration (CC50) at 48 h in series [2] is > 100 µM. Also, in the series on Influenza A virus [4], the inhibition at 100 µM was found to be 22.5%. As to `O=C(NCCN1CCN(c2ccccc2)CC1)c1ccccc1Nc1ccnc2ccc(Cl)cc12`, the CC50 at 48 h in series [2] is > 100 µM. Besides, in the series with Influenza A virus [3], the inhibition entry was “inactive”. Further, the outcome with Influenza A virus [7] was Active. Take `Cc1ccc(N2CCN(CCNC(=O)c3ccccc3Nc3ccnc4ccc(Cl)cc34)CC2)c(C)c1`: in series [2], the CC50 at 48 h came to 22.9 µM.

Turning to `O=C(Nc1ccccc1)c1ccccc1Nc1ccnc2cc(C(F)(F)F)ccc12`, the CC50 at 48 h in series [2] is > 100 µM. Consider `O=C(NCC(=O)N1CCOCC1)c1ccccc1Nc1ccnc2ccc(Cl)cc12`, for which the CC50 at 48 h in series [2] is > 100 µM. Besides, in the series on Influenza A virus [4], the inhibition at 100 µM is 65.4%. For `O=C(NCCCO)c1ccccc1Nc1ccnc2ccc(Cl)cc12` the same measures were > 100 µM and 69.5%.

As for `O=C(NCC(=O)N1CCN(c2cccc(Cl)c2Cl)CC1)c1ccccc1Nc1ccnc2ccc(Cl)cc12`, the CC50 at 48 h in series [2] was > 50 µM. In the series on Influenza A virus [3], the inhibition at 12.5 µM came to 24%. Take `O=C(CNC(=O)c1ccccc1Nc1ccnc2cc(C(F)(F)F)ccc12)NCc1ccccc1`: the cytotoxic concentration (CC50) at 48 h in series [2] was > 100 µM.

`O=C(NCCN1CCN(c2ccccc2OC(F)(F)F)CC1)c1ccccc1Nc1ccnc2ccc(Cl)cc12`: the inhibition at 50 µM with Influenza A virus [6] was 50%. The CC50 at 48 h in series [2] is > 100 µM.

For the compound `O=C(NCCN1CCN(c2cccc(Cl)c2Cl)CC1)c1ccccc1Nc1ccnc2ccc(Cl)cc12`, the CC50 at 48 h in series [2] is > 50 µM. Consider `O=C(CNC(=O)c1ccccc1Nc1ccnc2ccc(Cl)cc12)NCc1ccccc1`, for which the CC50 at 48 h in series [2] is > 100 µM. Also, in the series on Influenza A virus [7], the outcome was Active. Consider `CC(C)NC(=O)c1ccccc1Nc1ccnc2cc(C(F)(F)F)ccc12`, for which, in series [2], the CC50 at 48 h is > 100 µM. In the case of `O=C(CNC(=O)c1ccccc1Nc1ccnc2ccc(Cl)cc12)NC1CCCCC1`, in series [2], the cytotoxic concentration (CC50) at 48 h was found to be 21.6 µM. In addition, in the series with Influenza A virus [3], the inhibition at 12.5 µM stood at 44.4%. Regarding `CN(C)CCNC(=O)c1ccccc1Nc1ccnc2ccc(Cl)cc12`, the CC50 at 48 h in series [2] turned out to be 19.9 µM. Regarding `O=C(c1ccccc1Nc1ccnc2cc(C(F)(F)F)ccc12)N1CCOCC1`, the CC50 at 48 h in series [2] is > 100 µM.

Take `CCOC(=O)c1ccccc1Nc1ccnc2cc(C(F)(F)F)ccc12`: the CC50 at 48 h in series [2] is > 100 µM. For the same compound, the inhibition at 100 µM in the series with Influenza A virus [4] worked out at 9.09%. Turning to `O=C(NCCN1CCN(c2ccccc2Cl)CC1)c1ccccc1Nc1ccnc2ccc(Cl)cc12`, the Activity result in the series on MDCK was “Toxic”.
